Reference: patent US20210379210A1, “RADIOLIGANDS FOR IMAGING THE LPA1 RECEPTOR” (BRISTOL-MYERS SQUIBB COMPANY, priority 2018, published 2021)
Several values for one entry are separate records, joined by “and”; a condition that tells them apart may be missing. Equal entries are not always repeated.

System: LPA1
Assay: In-vivo PET imaging in cynomolgus monkeys, lung SUV and % displacement
Set-up: species or system cynomolgus monkey
Conditions: healthy cynomolgus monkeys, listed as [^18F]-(1S,3S)-3-(6-(5-((((4-(fluoro)butyl)(methyl)carbamoyl)oxy)methyl)-1-meth))
Method: [^18F]-(1S,3S)-3-((6-(5-((((4-(fluoro)butyl)(methyl)carbamoyl)oxy)methyl)-1-methyl-1H-1,2,3-triazol-4-yl)-2-methylpyridin-3-yl)oxy)cyclohexane-1-carboxylic acid was tested as an LPA1 PET radioligand to validate the target engagement of LPA1 antagonist used in normal healthy cynomolgus monkeys and to support future clinical use of this agent as a PET radioligand. In this experiment, the specific binding to LPA1, PET imaging in normal healthy cynomolgus monkeys (n=3) was performed. PET images were acquired at baseline and again at after oral administration of an LPA1 antagonist (3, 10, and 30 mg/kg) or vehicle solution (0.5% Methocel A4M: 0.1% Tween 80 (Polysorbate 80): 99.4% Water) only. The oral dosing time of LPA1 antagonist or vehicle was 3 hours prior to [^18F]-labeled antagonist injection. Cynomolgus monkeys on study were fasted beginning the morning of the imaging day. Veterinary Scientists induced initial anesthesia pre-op cocktail of 0.02 mg/kg Atropine, and 5 mg/kg Telazol, 0.1 mg/kg Hydromorphone IM. […] Vital signs were continuously monitored throughout the imaging study. […] After returning to a conscious state, the monkey was transferred to an isolation room with food and water until the radioactivity was decayed to background levels. […]

average SUV at baseline for individual animals (lung, mean of baseline scans per animal): 0.398 and 0.321 and 0.391
SMILES: Cc1nc(-c2nnn(C)c2COC(=O)N(C)CCCC[18F])ccc1O[C@H]1CCC[C@H](C(=O)O)C1 [Example 16]
SUV in Lung (60-90 min) (individual baseline scans): 0.307 and 0.428 and 0.333 and 0.273 and 0.356 and 0.379 and 0.403 and 0.459
